Measured values published in the supplement of paper PMC10307832.

Columns and labels:
Assay in all cases: relative viability (nuclei count vs DMSO), 5 days (fraction); higher = more cells survive
BI-D1870 + OSI-027 = compound: CC(C)CCN1c2nc(Nc3cc(F)c(O)c(F)c3)ncc2N(C)C(=O)C1C [BI-D1870] + COc1cccc2cc(-c3nc([C@H]4CC[C@H](C(=O)O)CC4)n4ncnc(N)c34)[nH]c12 [OSI-027] (partner 0.5 µM)
Summary of the method: (§1)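 Dosing by pin tool came one day after lung cancer cell lines were seeded in 1536-well plates, using either one drug or a fixed anchor-drug dose plus five library-drug doses (not always all listed) in √10 steps. After 5 days, nuclei were counted on 4× images. Relative viability is treated-well nuclei count divided by vehicle-well nuclei count, and values are medians of duplicate plates.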

BI-D1870 + Decitabine = compound: CC(C)CCN1c2nc(Nc3cc(F)c(O)c(F)c3)ncc2N(C)C(=O)C1C [BI-D1870] + Nc1ncn([C@H]2C[C@H](O)[C@@H](CO)O2)c(=O)n1 [Decitabine] (partner 2 µM)
Summary of the method: as §1

Zebularine + OSI-027 = compound: O=c1ncccn1[C@@H]1O[C@H](CO)[C@@H](O)[C@H]1O [Zebularine] + COc1cccc2cc(-c3nc([C@H]4CC[C@H](C(=O)O)CC4)n4ncnc(N)c34)[nH]c12 [OSI-027] (partner 0.5 µM)
Summary of the method: as §1

BI-D1870 + Crizotinib = compound: CC(C)CCN1c2nc(Nc3cc(F)c(O)c(F)c3)ncc2N(C)C(=O)C1C [BI-D1870] + C[C@@H](Oc1cc(-c2cnn(C3CCNCC3)c2)cnc1N)c1c(Cl)ccc(F)c1Cl [Crizotinib] (partner 1 µM)
Summary of the method: as §1

Cell Line	relative viability (BI-D1870 + OSI-027; first compound 0.04 µM)	relative viability (BI-D1870 + OSI-027; first compound 0.1265 µM)	relative viability (BI-D1870 + OSI-027; first compound 0.4 µM)	relative viability (BI-D1870 + OSI-027; first compound 1.265 µM)	relative viability (BI-D1870 + OSI-027; first compound 4 µM)	relative viability (BI-D1870 + Decitabine; first compound 0.04 µM)	relative viability (BI-D1870 + Decitabine; first compound 0.1265 µM)	relative viability (BI-D1870 + Decitabine; first compound 0.4 µM)	relative viability (BI-D1870 + Decitabine; first compound 1.265 µM)	relative viability (BI-D1870 + Decitabine; first compound 4 µM)	relative viability (Zebularine + OSI-027; first compound 1 µM)	relative viability (Zebularine + OSI-027; first compound 3.162 µM)	relative viability (Zebularine + OSI-027; first compound 10 µM)	relative viability (Zebularine + OSI-027; first compound 31.62 µM)	relative viability (Zebularine + OSI-027; first compound 100 µM)	relative viability (BI-D1870 + Crizotinib; first compound 0.04 µM)	relative viability (BI-D1870 + Crizotinib; first compound 0.1265 µM)	relative viability (BI-D1870 + Crizotinib; first compound 0.4 µM)	relative viability (BI-D1870 + Crizotinib; first compound 1.265 µM)	relative viability (BI-D1870 + Crizotinib; first compound 4 µM)
NCI-H1975	0.755	0.58	0.54	0.559	0.457	0.436	0.348	0.411	0.361	0.368	0.845	0.695	0.383	0.335	0.23	1.05	0.988	1.01	1.03	0.484
CAL-12T	0.593	0.449	0.477	0.599	0.303						0.816	0.552	0.387	0.688	0.542	0.598	0.53	0.662	0.506	0.283
NCI-H1623	0.389	0.439	0.457	0.396	0.376						0.428	0.397	0.407	0.561	0.411					
HCC-44	0.751	0.5	0.642	0.464	0.383	0.987	0.973	0.96	1.03	1.04	0.627	0.462	0.435	0.398	0.364	0.921	0.798	0.771	0.851	0.829
EKVX	0.68	0.608	0.64	0.776	0.641	0.328	0.309	0.374	0.436	0.39	0.679	0.644	0.617	0.749	0.695	0.929	0.986	0.92	0.941	0.816
NCI-H1651	0.738	0.608	0.668	0.753	0.63	0.615	0.592	0.537	0.64	0.617	0.735	0.69	0.549	0.716	0.447	0.91	0.821	0.821	0.939	0.872
NCI-H1944	0.514	0.376	0.366	0.475	0.426	0.435	0.415	0.388	0.508	0.432	0.445	0.466	0.385	0.434	0.421	1.19	0.978	1.05	1.36	1.11
NCI-H1703																1.16	0.613	0.467	0.756	0.356
Calu-6																0.883	0.741	0.886	0.597	0.629
EBC-1																0.16	0.182	0.209	0.188	0.134
SW 1573	0.598	0.436	0.513	0.477	0.329	0.653	0.497	0.473	0.372	0.26	0.603	0.606		0.506	0.443	1.01	0.808	0.876	0.905	0.597
A-427	0.547	0.429	0.574	0.61	0.528	0.573	0.499	0.561	0.685	0.638	0.51	0.403	0.347	0.344	0.268	0.992	0.86	0.825	1.11	0.857
NCI-H2347	0.422	0.458	0.374	0.476	0.478	0.671	0.656	0.619	0.657	0.627	0.444	0.412	0.443	0.424	0.393	0.812	0.674	0.7	0.662	0.577
NCI-H1355	0.464	0.36	0.361	0.425	0.308	0.363	0.31	0.356	0.412	0.394	0.435	0.388	0.357	0.494	0.381	1.12	0.985	1.1	1.08	1.11
NCI-H358	0.825	0.65	0.687	0.728	0.344	0.201	0.195	0.202	0.21	0.229	0.862	0.474	0.378	0.286	0.177	0.772	0.598	0.475	0.456	0.213
PC-3 [JPC-3]	0.752	0.703	0.674	0.697	0.565	0.867	0.867	0.849	0.944	0.728	0.832	0.701	0.554	0.663	0.656	1.01	0.898	1.05	1.05	0.97
NCI-H2228	0.659	0.533	0.654	0.515	0.257						0.604	0.514	0.284	0.607	0.275	0.645	0.479	0.374	0.435	0.329

Cell Line	relative viability (BI-D1870 + OSI-027; first compound 0.04 µM)	relative viability (BI-D1870 + OSI-027; first compound 0.1265 µM)	relative viability (BI-D1870 + OSI-027; first compound 0.4 µM)	relative viability (BI-D1870 + OSI-027; first compound 1.265 µM)	relative viability (BI-D1870 + OSI-027; first compound 4 µM)	relative viability (BI-D1870 + Decitabine; first compound 0.04 µM)	relative viability (BI-D1870 + Decitabine; first compound 0.1265 µM)	relative viability (BI-D1870 + Decitabine; first compound 0.4 µM)	relative viability (BI-D1870 + Decitabine; first compound 1.265 µM)	relative viability (BI-D1870 + Decitabine; first compound 4 µM)	relative viability (Zebularine + OSI-027; first compound 1 µM)	relative viability (Zebularine + OSI-027; first compound 3.162 µM)	relative viability (Zebularine + OSI-027; first compound 10 µM)	relative viability (Zebularine + OSI-027; first compound 31.62 µM)	relative viability (Zebularine + OSI-027; first compound 100 µM)	relative viability (BI-D1870 + Crizotinib; first compound 0.04 µM)	relative viability (BI-D1870 + Crizotinib; first compound 0.1265 µM)	relative viability (BI-D1870 + Crizotinib; first compound 0.4 µM)	relative viability (BI-D1870 + Crizotinib; first compound 1.265 µM)	relative viability (BI-D1870 + Crizotinib; first compound 4 µM)
HOP-62	0.993	0.819	0.791	0.849	0.699	0.212	0.241	0.208	0.198	0.314	0.945	0.745	0.493	0.465	0.319	1.08	0.986	0.963	1.01	0.915
HARA	0.616	0.417	0.503	0.608	0.421	0.513	0.527	0.568	0.683	0.684	0.367			0.42	0.245	1.15	0.941	0.994	1.24	0.922
NCI-H838	0.378	0.352	0.349	0.47	0.462	0.47	0.483	0.477	0.444	0.523	0.405	0.377	0.355	0.348	0.258	0.902	0.715	0.926	0.949	0.932
NCI-H1755	0.705	0.714	0.651	0.847	0.683	0.716	0.685	0.701	0.715	0.692	0.801	0.732	0.631	0.85	0.566	0.977	0.838	0.876	0.829	0.762
HCC-78	0.629	0.346	0.401	0.427	0.309	0.755	0.774	0.791	0.727	0.746	0.394	0.381	0.305	0.366	0.401	0.365	0.318	0.309	0.295	0.245
IA-LM																1.19	0.942	0.845	0.569	0.176
NCI-H322M	0.579	0.511	0.38	0.444	0.494	0.721	0.631	0.68	0.655	0.729	0.524	0.531	0.47	0.5	0.521	0.924	0.822	0.795	1.05	0.651
NCI-H1793	0.293	0.216	0.22	0.266	0.224	0.513	0.439	0.528	0.681	0.632	0.26	0.215		0.288	0.221					
NCI-H2342	0.592	0.587	0.645	0.773	0.679	0.714	0.69	0.793	0.891	0.795	0.709	0.621	0.589	0.626	0.627					
NCI-H1299																0.971	0.902	0.965	0.885	0.814
SW 900	0.808	0.424	0.442	0.604	0.327	0.479	0.47	0.472	0.534	0.498	0.842	0.621	0.306	0.543	0.427					
NCI-H1648	0.266	0.255	0.273	0.252	0.277	0.463	0.505		0.527	0.578	0.27	0.314	0.244	0.253	0.249					
NCI-H522	0.872	0.66	0.655	0.654	0.649	0.595	0.762	0.677	0.647	0.661	0.769	0.544	0.683	0.676	0.707					
NCI-H1395	0.717	0.639	0.658	0.616	0.593	0.68	0.671	0.707	0.738	0.718	0.65	0.58	0.553	0.531	0.429					
A549						0.213	0.282	0.27	0.288	0.236						0.873	0.708	0.76	0.618	0.158
NCI-H1563	0.79	0.814	0.673	0.801	0.709						0.81	0.776	0.572	0.89	0.76	0.878	0.893	0.842	0.905	0.905
